Target: WD repeat-containing protein 5 (Homo sapiens, UniProt P61964)
Test: Binding affinity to WDR5 expressed in pLysS cells by optimized fluorescent polarization based competitive binding assay
Format: biochemical

SMILES	Ki	IC50
CC(=O)N[C@@H](C)C(=O)N[C@@H](CCCNC(=N)N)C(=O)N[C@H](C(=O)N[C@@H](CCCCN)C(=O)N[C@@H](CCC(N)=O)C(=O)N[C@H](C(=O)N[C@@H](C)C(=O)N[C@@H](CCCNC(=N)N)C(=O)N[C@@H](CCCCN)C(=O)N[C@@H](CO)C(N)=O)[C@@H](C)O)[C@@H](C)O	< 0.001 µM	–
CC(=O)N[C@@H](C)C(=O)N[C@@H](CCCNC(=N)N)C(=O)N(C)[C@@H](C)C(N)=O	> 50 µM	> 300 µM
C[C@H](N)C(=O)N[C@@H](CCCN=C(N)N)C(=O)N[C@@H](C)C(N)=O	> 50 µM	> 300 µM

Reference: ChEMBL document CHEMBL1155441 (J Med Chem, 2010)
